Data on one compound can be found in patent US12264170B2, “Antimicrobial organosilanes” (TOPIKOS SCIENTIFIC, INC., priority 2019, dated 2025).

Experiment [1] concerns Candida albicans ATCC 90028. The experiment can be described thus: MBC/MFC determination. Conditions: C. albicans ATCC 90028; plated after 48 hours incubation; two values given. It is filed as cell-based. How it is done:
(§1) 10 μL of liquid from each test condition was plated on the appropriate agar media for each test strain. For bacteria strains, plating for MBC occurred after 18 to 20 hours incubation. For the Candida species, plating for MFC occurred after 48 hours incubation, while C. herbarum plating for MFC occurred 3 days after incubation when growth in growth control wells was visually observed. Once the liquid from the 96-well plate has been allowed to air dry in a biosafety cabinet, the agar plates were incubated under the appropriate conditions and colony formation was assessed. MBC/MFC is defined as the lowest concentration of a compound in which no colonies were recovered.

The test system of experiment [2] is Candida auris CDC 0381. The experiment can be described thus: MBC/MFC determination. It is filed as cell-based. Conditions: C. auris CDC 0381; plated after 48 hours incubation; two values given. How it is done: as §1
In experiment [3] the test system is Cladosporium herbarum ATCC MYA-4682. The experiment can be described thus: MBC/MFC determination. As to conditions: C. herbarum ATCC MYA-4682; plated 3 days after incubation; two values given. It is filed as cell-based. The procedure:
as §1

Experiment [4] has as its system Candida auris CDC 0381. The experiment can be described thus: MIC microdilution assay. Conditions: C. auris CDC 0381; RPMI media; 35±2° C. 24 to 48 hours; two values given. It is filed as cell-based. How it is done: (§2) Strain numbers starting with “ATCC” were acquired from the American Type Culture Collection (Manassas, VA), while strain numbers starting with “CDC” were acquired from the Centers for Disease Control and Prevention (Atlanta, GA). All strains were maintained as −80° C. frozen glycerol stocks. S. aureus and P. aeruginosa were grown overnight on Tryptic Soy Agar (TSA) plates at 35±2° C., ambient atmosphere, while S. pyogenes was grown overnight on TSA+5% defibrinated sheep blood at 35±2° C., 5% CO2. All fungal species (i.e. C. albicans, C. auris and C. herbarum) were grown on Sabouraud Dextrose Agar (SDA) plates. C. herbarum was grown at 25±2° C. for 5 to 7 days, while all other fungal strains were grown at 35±2° C. overnight.
(§3) Test articles Compound 2 (batch #2G13A0.368) and Compound 23 (batch #2G17A0.372) were received and stored at 4° C. The antibiotic Tobramycin and antifungal Amphotericin B were used as quality control (QC) compounds for the MIC assay. Stock solutions of 3.2 mg/mL Tobramycin (Sigma-Aldrich, cat #T1783-500MG) and 3.2 mg/mL Amphotericin B (CP Lab Chemicals, cat #TOK-A007-1G) were prepared in sterile ultrapure water.
(§4) For bacteria strains, a few colonies of each strain were collected with a sterile swab and used to make a McFarland 0.5 standard solution (approximately 1×10^8 CFU/mL) in sterile PBS. The McFarland was then diluted 1:180 in Cation Adjusted Muller-Hinton Broth (CAMHB) for S. aureus and P. aeruginosa, and in […]+5% defibrinated sheep blood for S. pyogenes. 90 μL of this inoculum was combined with 10 μL of the 10× test article in a 96-well plate for a final concentration of 1×.
For the yeasts C. albicans and C. auris, a McFarland 0.5 standard solution in sterile PBS was similarly prepared (approximately 1×10^6 CFU/mL) and was subsequently diluted 1:180 in RPMI 1640 media buffered with 0.165 M MOPS at pH 7.0 (herein referred to as “RPMI media”). 90 μL of the Candida inoculum was combined with 10 μL of the 10× test article in a 96-well plate for a final concentration of 1×.
All bacterial-strain MIC 96-well plates were incubated at 35±2° C. for 18 to 20 hours, while all Candida MIC 96-well plates were incubated at 35±2° C. for 24 to 48 hours. C. herbarum MIC 96-well plates were incubated at 25±2° C. for 3 to 5 days, until growth was visible in the growth control wells. After incubation, the 96-well plates were examined visually and on a spectrophotometer at absorbance OD650. MIC is defined as the lowest concentration of a compound in which no visible growth is observed.
(In general: Broth dilution looks for growth in wells or tubes with falling amounts of substance.)

In experiment [5] the test system is Staphylococcus aureus ATCC 33591. The experiment can be described thus: MIC microdilution assay. It is filed as cell-based. As to conditions: S. aureus ATCC 33591; CAMHB; 35±2° C. 18 to 20 hours; two values given. How it is done:
as §2, §3, §4
(§5) All bacterial-strain MIC 96-well plates were incubated at 35±2° C. for 18 to 20 hours, while all Candida MIC 96-well plates were incubated at 35±2° C. for 24 to 48 hours. C. herbarum MIC 96-well plates were incubated at 25±2° C. for 3 to 5 days, until growth was visible in the growth control wells. After incubation, the 96-well plates were examined visually and on a spectrophotometer at absorbance OD650. […]

For experiment [6], the system named is P. aeruginosa ATCC 27853. Kind of experiment: MIC microdilution assay. It is filed as cell-based, Pseudomonas aeruginosa. Conditions: CAMHB, 35±2° C. 18 to 20 hours, two values given. How it is done:
as §2, §3, §4, §5

For a further experiment, the system named is S. pyogenes ATCC 51339. Kind of experiment: MBC/MFC determination. It is filed as cell-based, Steptococcus pyogenes. Conditions: plated after 18 to 20 hours incubation, two values given. The procedure:
as §1

Experiment [7] concerns P. aeruginosa ATCC 27853. Kind of experiment: MBC/MFC determination. It is filed as cell-based, Pseudomonas aeruginosa. Conditions: plated after 18 to 20 hours incubation, two values given. How it is done: as §1

Several values for one entry are separate records, joined by “and”; a condition that tells them apart may be missing. Equal entries are not always repeated. Bounds are passed on as bounds.

By MIC is commonly meant the least concentration at which growth counts as inhibited. Lower therefore signals greater potency. For `CCCCCCCCCCCCCCCCCC[N+](C)(C)CCC[Si](OCC(CO)(CO)NCC(O)CS(=O)(=O)[O-])(OCC(CO)(CO)NCC(O)CS(=O)(=O)[O-])OCC(CO)(CO)NCC(O)CS(=O)(=O)O.[Cl-].[Na+].[Na+]` (centres unmarked) [Compound 2], the MBC/MFC in experiment [1] was 2 µg/mL and 1 µg/mL; against Candida auris CDC 0381 [2], 1 µg/mL; in experiment [3] it was 2 µg/mL; in the experiment with S. pyogenes ATCC 51339, >64 µg/mL and 64 µg/mL; against P. aeruginosa ATCC 27853 [7], greater than 64 µg/mL. Besides, the MIC against Candida auris CDC 0381 [4] was 1 µg/mL; in experiment [5] it was 1 µg/mL; against P. aeruginosa ATCC 27853 [6] it was greater than 64 µg/mL.
